Measurements published in US11185593B2, “Alkylating agent for alkylating target with driver oncogene mutation” (Chiba Prefecture, priority 2013, dated 2021).

Legend:
Assay type in all cases: cell-based
[1] = test system: IMR-32 cells (MYCN, 25 copies); assay: Cell growth curve, Incucyte culture time-lapse microscope; details: IMR-32, 1 to 100 nM, FIG. 32
Protocol: (§1) The cells were seeded in each well of a 96-well plate at a cell density of 1000 cells/50 μl/well, and were then cultured under conditions of 37° C., 5% CO2, and saturated humidity for 24 hours. On the following day, the culture media was replaced with a culture media, to which a DMSO control, or 1 nM, 3 nM, 10 nM, 30 nM or 100 nM MYCNA1 had been added, and the resulting cells were then observed under an Incucyte culture time-lapse microscope (Essen Instruments, Ann Arbor, Mich.) every 6 hours. A growth curve was produced from an imaging plate using Incucyte system (Essen Instruments, Ann Arbor, Mich.). The cells used in the experiment were neuroblastoma cell lines having MYCN amplification, IMR-32 cells (MYCN, 25 copies) and TGW cells (MYCN, 60 copies). The cells of each type were cultured in a DMEM, 10% FBS and 1% Pen/St medium, and in an RPMI1640, 10% FBS and 1% Pen/St medium, respectively.

[2] = test system: TGW cells (MYCN, 60 copies); assay: as above; details: 1 to 100 nM, FIG. 32
Protocol: as §1

TGW cells = assay: Cytotoxicity test, Cell Counting Kit-8, 72 hours
Protocol: (§2) The experiment was carried out in the same manner as that in the case of using KR12. The cells used in the experiment were IMR-32 cells and TGW cells. These cells were cultured in a DMEM, 10% FBS and 1% Pen/St medium, and in an RPMI1640, 10% FBS and 1% Pen/St medium, respectively. The cells of each type were seeded in each well of a 96-well plate at a cell density of 1000 cells/50 μl/well, and were then cultured under conditions of 37° C., 5% CO2, and saturated humidity for 24 hours. Thereafter, a reagent was diluted with a medium (final concentration: 1, 3, 10, 30, and 100 nM), and the diluted reagent was then added to the cultured cells in an amount of 50 μl/well, and the obtained mixture was then blended. The thus obtained mixture was cultured again under conditions of 37° C., 5% CO2, and saturated humidity for 72 hours. Thereafter, Cell Counting Kit-8 (DOJINDO) was added to the obtained culture in an amount of 10 μl/well, and the thus obtained mixture was blended and was then cultured under conditions of 37° C., 5% CO2, and saturated humidity for 2 hours. The absorbance was measured using Microplate Reader MTP-310 Lab (COLONA ELECTORIC), and the IC50 value was then calculated.

IMR-32 cells = assay: Cytotoxicity test, Cell Counting Kit-8, 72 hours; details: Homo sapiens
Protocol: The experiment was carried out in the same manner as that in the case of using KR12. The cells used in the experiment were Kelly cells, SK-N-SH cells, IMR-32 cells, SK-N-AS cells, and MDA-MB-231 cells. These cells were cultured in a DMEM, 10% FBS and 1% Pen/St medium, and in an RPMI1640, 10% FBS and 1% Pen/St medium, respectively. The cells of each type were seeded in each well of a 96-well plate at a cell density of 1000 cells/50 μl/well, and were then cultured under conditions of 37° C., 5% CO2, and saturated humidity for 24 hours. Thereafter, a reagent was diluted with a medium (final concentration: 1, 3, 10, 30, and 100 nM), and the diluted reagent was then added to the cultured cells in an amount of 50 μl/well, and the obtained mixture was then blended. The thus obtained mixture was cultured again under conditions of 37° C., 5% CO2, and saturated humidity for 72 hours. Thereafter, Cell Counting Kit-8 (DOJINDO) was added to the obtained culture in an amount of 10 μl/well, and the thus obtained mixture was blended and was then cultured under conditions of 37° C., 5% CO2, and saturated humidity for 2 hours. The absorbance was measured using Microplate Reader MTP-310 Lab (COLONA ELECTORIC), and the IC50 value was then calculated.
as §2

HDF cells = assay: Cell growth measurement test, 72 hours; details: fibroblasts, 0.3 to 300 nM
NB69 cells = assay: Cell growth measurement test, 72 hours; details: Homo sapiens, NB69, without MYCN amplification, 0.3 to 300 nM
MCF7 cells = assay: Cytotoxicity test, Cell Counting Kit-8, 72 hours; details: Homo sapiens, MCF7, breast cancer cells, 0.3 to 300 nM
Protocol: as §2, with “MCF7” for “IMR-32”, “MDA-MB-231” for “TGW”

HT29 cells = assay: Cell growth measurement test, 72 hours; details: Homo sapiens, HT-29, HT29, colon cancer cells, 0.3 to 300 nM

SMILES	cell growth (growth curve) [1]	cell growth (growth curve) [2]	IC50 (TGW cells; TGW cells, 1 to 100 nM, FIG. 33) [nM]	IC50 (IMR-32 cells; IMR-32 cells, 1 to 100 nM, FIG. 33) [nM]	IC50 (HDF cells) [nM]	IC50 (NB69 cells) [nM]	IC50 (MCF7 cells) [nM]	IC50 (TGW cells; TGW, with MYCN amplification, 0.3 to 300 nM) [nM]	IC50 (HT29 cells) [nM]	IC50 (IMR-32 cells; IMR-32, IMR32, with MYCN amplification, 0.3 to 300 nM) [nM]
CC(=O)Nc1cn(C)c(C(=O)Nc2cc(C(=O)Nc3cc(C(=O)NCCC(=O)Nc4cn(C)c(C(=O)Nc5cc(C(=O)NCCCC(=O)Nc6cc(C(=O)Nc7cc(C(=O)NCCC(=O)Nc8cc(C(=O)Nc9ccc%10[nH]c(C(=O)N%11CC(CCl)c%12c%11cc(O)c%11ccccc%12%11)cc%10c9)n(C)c8)n(C)c7)n(C)c6)n(C)c5)n4)n(C)c3)n(C)c2)n1 (stereo not shown) [MYCNA1]	suppressed by MYCNA1 in a concentration-dependent manner	suppressed by MYCNA1 in a concentration-dependent manner	12.9	9.7						
CC(=O)Nc1cn(C)c(C(=O)Nc2cn(C)c(C(=O)Nc3cn(C)c(C(=O)NCCC(=O)Nc4cn(C)c(C(=O)Nc5cc(C(=O)Nc6cc(C(=O)NCCCC(=O)Nc7cn(C)c(C(=O)Nc8cn(C)c(C(=O)Nc9cc(C(=O)NCCC(=O)Nc%10cc(C(=O)Nc%11ccc%12[nH]c(C(=O)N%13CC(CCl)c%14c%13cc(O)c%13ccccc%14%13)cc%12c%11)n(C)c%10)n(C)c9)n8)n7)n(C)c6)n(C)c5)n4)n3)n2)n1 (stereo not shown) [MYCNA3]					56.6	77	152	3.7	240	1.1
